By IC50 is commonly meant the concentration that inhibits the measured activity by half.

For one assay, the system named is wtCld-expressing OW95. The method, then: (§1) 100 μL of water was added to the negative control wells. The plate was then placed in a shaker and cultivated overnight at 37° C., 250 rpm. IC50 were determined 24 hours after inoculation by measuring OD600.
For assay [1], the system named is RFP-expressing E. coli, OW94. To be noted: read-out: chlorite IC50; OW94 negative control, growth (OD600) 24 hours at 37° C., MRM medium. As to the method: as §1
In assay [2] the test system is cCld expressing strain OW116. The method, then: as §1
Another assay relates to parental LMG194. To be noted: read-out: chlorite IC50; LMG194, growth (OD600) 24 hours at 37° C., MRM medium. The method, then: as §1
Assay [3] concerns cld deletion (Acid) mutant. To be noted: 40 μM chlorite, unpublished observations.
For the next assay, the system named is E. coli lytic phages. To be noted: 4 mM chlorite, 37° C. The method, then: (§2) Influent wastewater samples were collected from the East Bay Municipal Utility District's wastewater treatment plant in Oakland, CA, and filtered through […] filters to remove debris and microbes. To make a phage enrichment culture, 5 mL of filtered wastewater was mixed with 5 mL of 2× LB medium and inoculated with 100 μL of stationary E. coli cells, incubated for 48 hours at 37° C., 50 RPM. Next, a sterile cotton swab was dipped into an overnight E. coli culture, smeared on an LB agar plate, and 10 μL of the phage enrichment culture was then spotted on the plate. The plate was incubated overnight at 37° C. […] Phage particles from the clear zone were picked into the phage buffer (10 mM Tris, 1 mM CaCl2 10 mM MgCl2, 68 mM NaCl, pH 7.5, adapted from the Phage Hunting Program, University of Pittsburgh), followed by dilution to extinction and plating to obtain single plaques with pure phage cultures. Phage cultures were maintained at 4° C. in the phage buffer. […] Samples were taken at designated time points and mixed with PYE (0.3%) agar and log phase (OD660 0.1-04) C. crescentus culture before plating on PYE plates. Plaque forming unites were counted after 24 hours.

For assay [4], the system named is C. crescentus phage CR-30. To be noted: incubated with chlorite at 30 C. The method, then: as §2
For a further assay, the system named is OW94. The method, then:
(§3) A 2 L round-bottom autoclavable laboratory fermenter (BiOENGiNEERiNG), was operated as an iso-volumetric chemostat with 1 L of MRM medium in the bioreactor vessel. Temperature, dissolved oxygen (dO), and pH were monitored during the course of the experiments. Temperature was set and maintained at 37° C. pH was set to 7.2 and adjusted automatically based on the real time pH value with 1M NaOH or 1M HCl. dO was set to 20% of the maximal dO value at 37° C. with constant air flow of 2 L/min. Constant dO was maintained by automatic agitation speed adjustment based on the real-time dO value. Agitation speed varied between 200-700 RPM, depending on oxygen demand. Two separate pumps were used to control medium inflow and waste outflow rates.
(§4) The chemostat at first operated as a batch culture (dilution rate equal to 0), until the culture reached mid-log phase (OD600 of ˜0.7-1.0), then dilution rate was set to be approximately equal to the cell growth rate. This allowed the bioreactor to achieve a zero net growth while maintaining a near-maximum specific growth rate. […] All growth data were plotted and calculated using the Prism 7 software.

The test system of the next assay is OW116. The method, then: as §3, §4
Assay [5] has as its system contaminants from Strawberry Creek water. To be noted: 10 mM chlorite spiked, reactor contaminated with 1% (v/v) creek water, OW115. As to the method: as §3
In another assay the test system is SCW enrichment culture. To be noted: 4 mM chlorite, OW117 bioreactor, SCW enrichment added. As to the method:
as §3

The subject of assay [6] is chlorite hyper-resistant strain OW105. To be noted: MRM medium. The method, then:
as §1
OW95 cells were revived from freezer stocks, transferred into liquid MRM medium, and induced for Cld expression as described above.

Assay [7] concerns SCW enrichment culture, OW117 and OW118. To be noted: SCW enrichment vs OW117 vs OW118.
Description: as §4

A further assay relates to Azospira suillum PS. To be noted: 40 μM chlorite, unpublished observations.
The mark [8] stands for this setting: 4 mM chlorite spiked into chemostat at equilibrium growth, 37° C.
[9] abbreviates: batch cultures, different chlorite concentrations.

For the substance Sodium chlorite, in the assay with wtCld-expressing OW95 (OW95 vs OW94 and LMG194), the “increase in chlorite resistance compared to negative controls” value is given as “three-fold increase”. Also, the IC50 in the assay with wtCld-expressing OW95 (read-out: chlorite IC50, OW95, Cld induced at 26° C., growth (OD600) 24 hours at 37° C., MRM medium) came to 1740 µM; in assay [1], 560 µM; in [2] (read-out: chlorite IC50, OW116, growth (OD600) 24 hours at 37° C., MRM medium), 8940 µM; in the assay with parental LMG194, 300 µM; in assay [6] (read-out: chlorite IC50, OW105, growth (OD600) 24 hours at 37° C.), 4600 µM. The “chlorite resistance of cCld relative to wtCld” value in assay [2] (cCld vs wtCld) was determined as 5 fold. Further, the figures for the “aerobic growth in the presence of chlorite” value (in assay [3]; in the assay with Azospira suillum PS) were “failed to grow” and “grew aerobically”, respectively. The phage inactivation result (in the assay with E. coli lytic phages; in assay [4]) was “chlorite-induced phage inactivation” throughout. For the same substance, the “specific growth rate after the chlorite spike” value is 0.01 ± 0.07 h⁻¹ in the assay on OW94 (setting [8]) and 0.64 ± 0.10 h⁻¹ in the assay with OW116 (setting [8]). Besides, the “specific growth rate in batch culture as chlorite concentration increased” value with OW94 (setting [9]) was “drastically decreased”; in the assay with OW116 (setting [9]), “only reduced slightly”. The “reduction of specific growth rate after the chlorite spike” value in the assay with OW116 (4 mM chlorite, chemostat, vs before spike) was approximately 20%. Also, in assay [5], the “effect of chlorite spike on the contaminated bioreactor” value was “contaminants were inhibited and washed out”. For the same substance, the “indigo production after addition of contaminants” value with SCW enrichment culture is listed as “indigo was steadily produced until the end of the experiment”. Moreover, in [6] (end of directed evolution, 37° C.), the “chlorite concentration in which the strain was able to grow, reaching a similar final OD600 as without chlorite control” value is 8 mM. Further, the “batch growth in medium with chlorite” value in [7] is given as “only OW118 could endure medium with chlorite”.
